Experimental data published in patent publication US7371766B2, “Curcumin analogs with anti-tumor and anti-angiogenic properties” (Emory University, priority 1999, dated 2008).

Legend:
HCT-116 = assay: cells; conditions: Homo sapiens, HCT-116, 48 h; for GI50: read-out: Median Growth Inhibitory Concentration (GI50); for CC50: read-out: Median Lethal Concentration (LC50)
CCRF-CEM = assay: cells; conditions: Homo sapiens, 48 h; for GI50: read-out: Median Growth Inhibitory Concentration (GI50)
SK-OV-3 = assay: cells; conditions: Homo sapiens, SK-OV-3, 48 h; for GI50: read-out: Median Growth Inhibitory Concentration (GI50); for CC50: read-out: Median Lethal Concentration (LC50)
NCI-H460 = assay: cells; conditions: Homo sapiens, NCI-H460, 48 h; for GI50: read-out: Median Growth Inhibitory Concentration (GI50); for CC50: read-out: Median Lethal Concentration (LC50)
MCF-7 = assay: cells; conditions: Homo sapiens, MCF7, 48 h; for GI50: read-out: Median Growth Inhibitory Concentration (GI50); for CC50: read-out: Median Lethal Concentration (LC50)
SK-MEL-5 = assay: cells; conditions: Homo sapiens, SK-MEL-5, 48 h; for GI50: read-out: Median Growth Inhibitory Concentration (GI50)
MALME-3M = assay: cells; conditions: Homo sapiens, 48 h; for GI50: read-out: Median Growth Inhibitory Concentration (GI50); for CC50: read-out: Median Lethal Concentration (LC50)
TK-10 = assay: cells; conditions: Homo sapiens, TK-10, 48 h; for GI50: read-out: Median Growth Inhibitory Concentration (GI50); for CC50: read-out: Median Lethal Concentration (LC50)
M14 = assay: cells; conditions: Homo sapiens, M14, 48 h; for GI50: read-out: Median Growth Inhibitory Concentration (GI50); for CC50: read-out: Median Lethal Concentration (LC50)
KM12 = assay: cells; conditions: Homo sapiens, KM12, 48 h; for GI50: read-out: Median Growth Inhibitory Concentration (GI50); for CC50: read-out: Median Lethal Concentration (LC50)
HCC-2998 = assay: cells; conditions: Homo sapiens, HCC 2998, 48 h; for GI50: read-out: Median Growth Inhibitory Concentration (GI50); for CC50: read-out: Median Lethal Concentration (LC50)
K-562 = assay: cells; conditions: Homo sapiens, K562, 48 h; for GI50: read-out: Median Growth Inhibitory Concentration (GI50); for CC50: read-out: Median Lethal Concentration (LC50)
BT-549 = assay: cells; conditions: Homo sapiens, BT-549, 48 h; for GI50: read-out: Median Growth Inhibitory Concentration (GI50); for CC50: read-out: Median Lethal Concentration (LC50)
RPMI-8226 = assay: cells; conditions: Homo sapiens, RPMI-8226, 48 h; for GI50: read-out: Median Growth Inhibitory Concentration (GI50)
HCT-15 = assay: cells; conditions: Homo sapiens, HCT-15, 48 h; for GI50: read-out: Median Growth Inhibitory Concentration (GI50); for CC50: read-out: Median Lethal Concentration (LC50)
OVCAR-5 = assay: cells; conditions: Homo sapiens, OVCAR-5, 48 h; for GI50: read-out: Median Growth Inhibitory Concentration (GI50); for CC50: read-out: Median Lethal Concentration (LC50)
OVCAR-4 = assay: cells; conditions: Homo sapiens, OVCAR-4, 48 h; for GI50: read-out: Median Growth Inhibitory Concentration (GI50); for CC50: read-out: Median Lethal Concentration (LC50)
DU-145 = assay: cells; conditions: Homo sapiens, DU-145, 48 h; for GI50: read-out: Median Growth Inhibitory Concentration (GI50); for CC50: read-out: Median Lethal Concentration (LC50)
SF-268 = assay: cells; conditions: Homo sapiens, SF-268, 48 h; for GI50: read-out: Median Growth Inhibitory Concentration (GI50); for CC50: read-out: Median Lethal Concentration (LC50)
HOP-62 = assay: cells; conditions: Homo sapiens, HOP-62, 48 h; for GI50: read-out: Median Growth Inhibitory Concentration (GI50)
OVCAR-8 = assay: cells; conditions: Homo sapiens, OVCAR-8, 48 h; for GI50: read-out: Median Growth Inhibitory Concentration (GI50); for CC50: read-out: Median Lethal Concentration (LC50)
RXF 393 = assay: cells; conditions: Homo sapiens, RXF 393, 48 h; for GI50: read-out: Median Growth Inhibitory Concentration (GI50); for CC50: read-out: Median Lethal Concentration (LC50)
[1] = test system: Sixty human tumor cell lines; assay: cells; conditions: 48 h; for GI50: read-out: Median Growth Inhibitory Concentration (GI50), Mean; for CC50: read-out: Median Lethal Concentration (LC50), Mean
UO-31 = assay: cells; conditions: Homo sapiens, UO-31, 48 h; for GI50: read-out: Median Growth Inhibitory Concentration (GI50); for CC50: read-out: Median Lethal Concentration (LC50)
SK-MEL-28 = assay: cells; conditions: Homo sapiens, SK-MEL-28, 48 h; for GI50: read-out: Median Growth Inhibitory Concentration (GI50); for CC50: read-out: Median Lethal Concentration (LC50)
[2] = test system: Sixty human tumor cell lines; conditions: NCI Anti-Tumor Screen, several cell types
MDA-N = assay: cells; conditions: Homo sapiens, 48 h; for GI50: read-out: Median Growth Inhibitory Concentration (GI50); for CC50: read-out: Median Lethal Concentration (LC50)
T-47D = assay: cells; conditions: Homo sapiens, T47D, 48 h; for GI50: read-out: Median Growth Inhibitory Concentration (GI50); for CC50: read-out: Median Lethal Concentration (LC50)
A549 = assay: cells; conditions: Homo sapiens, A549, 48 h; for GI50: read-out: Median Growth Inhibitory Concentration (GI50); for CC50: read-out: Median Lethal Concentration (LC50)
[3] = read-out: Median Lethal Concentration (LC50)

`O=C1C(=Cc2ccccc2O)CCCC1=Cc1ccccc1O` [EF4, 2,6Bis(2-hydroxybenzylidene)cyclohexanone] showed a GI50 (HCT-116) of 2.2 µM, a CC50 (HCT-116) of 13.2 µM and a GI50 (CCRF-CEM) of 1.4 µM. It also gave a GI50 (SK-OV-3) of 6.7 µM, a CC50 (SK-OV-3) of 63.6 µM and a GI50 (NCI-H460) of 2.3 µM. For the same molecule, the CC50 (NCI-H460) was 40.2 µM, the GI50 (MCF-7) was 2.7 µM and the CC50 (MCF-7) was 44.1 µM. For the same molecule, the GI50 (SK-MEL-5) was 1.6 µM, the GI50 (MALME-3M) was 2.3 µM and the CC50 (MALME-3M) was 24.3 µM. The GI50 (TK-10) was 3 µM, the CC50 (TK-10) was 22.6 µM and the GI50 (M14) was 1.9 µM. For the same molecule, the CC50 (M14) was 13.2 µM, the GI50 (KM12) was 1.6 µM and the CC50 (KM12) was 6.5 µM. The GI50 (HCC-2998) was 1.7 µM, the CC50 (HCC-2998) was 5.9 µM and the GI50 (K-562) was 2.5 µM. It also gave a CC50 (K-562) of 91.4 µM, a GI50 (BT-549) of 2.4 µM and a CC50 (BT-549) of 26.1 µM. For the same molecule, the GI50 (RPMI-8226) was 0.6 µM, the GI50 (HCT-15) was 2.2 µM and the CC50 (HCT-15) was greater than 100 µM. The GI50 (OVCAR-5) was 2.6 µM, the CC50 (OVCAR-5) was 55.9 µM and the GI50 (OVCAR-4) was 2.5 µM. The CC50 (OVCAR-4) was 18.4 µM, the GI50 (DU-145) was 1.4 µM and the CC50 (DU-145) was 7 µM. It also gave a GI50 (SF-268) of 3 µM, a CC50 (SF-268) of 53.2 µM and a GI50 (HOP-62) of 2.9 µM. The GI50 (OVCAR-8) was 2.9 µM, the CC50 (OVCAR-8) was greater than 100 µM and the GI50 (RXF 393) was 0.5 µM. The CC50 (RXF 393) was 30.8 µM, the GI50 [1] was 2.4 µM and the CC50 [1] was 33.9 µM. The GI50 (UO-31) was 1.6 µM, the CC50 (UO-31) was 6.2 µM and the GI50 (SK-MEL-28) was 2.9 µM. For the same molecule, the CC50 (SK-MEL-28) was 33.8 µM, the “GI50 compared with CISPLATIN, in words” value [2] was “lower GI50 than the chemotherapeutic agent CISPLATIN for several cell types” and the “LC50 compared with CISPLATIN, in words” value [2] was “lower LC50 than the chemotherapeutic agent CISPLATIN for several cell types”. It also gave a GI50 (MDA-N) of 1.6 µM, a CC50 (MDA-N) of 20.2 µM and a GI50 (T-47D) of 1.7 µM. For the same molecule, the CC50 (T-47D) was 50.8 µM, the GI50 (A549) was 2.6 µM and the CC50 (A549) was greater than 100 µM.
With `O=C(C=Cc1ccc(F)cc1F)C=Cc1ccc(F)cc1F` [EF9, 1,5-Bis(2,4-difluorophenyl)penta-1,4-dien-3-one] the GI50 (HCT-116) was 1.9 µM, the CC50 (HCT-116) was 7.7 µM and the GI50 (CCRF-CEM) was 3.1 µM. For the same molecule, the CC50 (CCRF-CEM; [3]) was greater than 100 µM, the GI50 (SK-OV-3) was 15.4 µM and the CC50 (SK-OV-3) was 53.7 µM. It also gave a GI50 (NCI-H460) of 12.7 µM, a CC50 (NCI-H460) of 60.9 µM and a GI50 (MCF-7) of 3 µM. It also gave a CC50 (MCF-7) of 42.2 µM, a GI50 (SK-MEL-5) of 12.1 µM and a CC50 (SK-MEL-5; [3]) of 53.1 µM. It also gave a GI50 (MALME-3M) of 17.8 µM, a CC50 (MALME-3M) of 73.4 µM and a GI50 (TK-10) of 17.9 µM. For the same molecule, the CC50 (TK-10) was 56.5 µM, the GI50 (M14) was 4.1 µM and the CC50 (M14) was 48.6 µM. It also gave a GI50 (KM12) of 2.3 µM, a CC50 (KM12) of 14.6 µM and a GI50 (HCC-2998) of 3.3 µM. It also gave a CC50 (HCC-2998) of 32.2 µM, a GI50 (K-562) of 3.5 µM and a CC50 (K-562) greater than 100 µM. For the same molecule, the GI50 (BT-549) was 6.5 µM, the CC50 (BT-549) was 47.3 µM and the GI50 (RPMI-8226) was 2.4 µM. The CC50 (RPMI-8226; [3]) was 95.6 µM, the GI50 (HCT-15) was 4.9 µM and the CC50 (HCT-15) was 64.7 µM. For the same molecule, the GI50 (OVCAR-5) was 20 µM, the CC50 (OVCAR-5) was 63.3 µM and the GI50 (OVCAR-4) was 15.2 µM. The CC50 (OVCAR-4) was 61.6 µM, the GI50 (DU-145) was 2.1 µM and the CC50 (DU-145) was 29 µM. For the same molecule, the GI50 (SF-268) was 13.7 µM, the CC50 (SF-268) was greater than 100 µM and the GI50 (HOP-62) was 16.6 µM. The CC50 (HOP-62; [3]) was 60.7 µM, the GI50 (OVCAR-8) was 3.4 µM and the CC50 (OVCAR-8) was 85.3 µM. The GI50 (RXF 393) was 2.3 µM, the CC50 (RXF 393) was 17.9 µM and the GI50 [1] was 7.2 µM. For the same molecule, the CC50 [1] was 52.5 µM, the GI50 (UO-31) was 9.6 µM and the CC50 (UO-31) was 49.5 µM. For the same molecule, the GI50 (SK-MEL-28) was 18.6 µM, the CC50 (SK-MEL-28) was 61.1 µM and the “LC50 compared with CISPLATIN, in words” value [2] was “lower LC50 than the chemotherapeutic agent CISPLATIN for several cell types”. The GI50 (MDA-N) was 2.9 µM, the CC50 (MDA-N) was 33.2 µM and the GI50 (T-47D) was 4.4 µM. For the same molecule, the CC50 (T-47D) was 56.1 µM, the GI50 (A549) was 8.9 µM and the CC50 (A549) was 71 µM.
